Measurements: ChEMBL document CHEMBL3745602, “Design, synthesis and in vivo screening of some novel quinazoline analogs as anti-hyperlipidemic and hypoglycemic agents” (2016)

What was measured:
Type in all cases: functional
Rattus norvegicus [1] = assay: Hypolipidemic activity in high fat-induced hyperlipidemic Sprague-Dawley rat assessed as HDL level at 250 mg/kg, po dosed for last 7 days during 30 day high-fat diet feeding schedule (reference value: 37.5 +/- 0.96 mg/dl)
Rattus norvegicus [2] = assay: Hypoglycemic activity in Sprague-Dawley rat assessed as blood glucose level at 250 mg/kg, po dosed for last 7 days during 30 day high-fat diet feeding schedule (reference value: 63.70 +/- 0.7 mg/dl)
Rattus norvegicus [3] = assay: Hypolipidemic activity in high fat-induced hyperlipidemic Sprague-Dawley rat assessed as cholesterol level at 250 mg/kg, po dosed for last 7 days during 30 day high-fat diet feeding schedule (reference value: 70.8 +/- 0.5 mg/dl)
Rattus norvegicus [4] = assay: Hypolipidemic activity in high fat-induced hyperlipidemic Sprague-Dawley rat assessed as ratio of cholesterol level to HDL level at 250 mg/kg, po dosed for last 7 days during 30 day high-fat diet feeding schedule (reference value: 1.88 +/- 0.05)
Rattus norvegicus [5] = assay: Hypolipidemic activity in high fat-induced hyperlipidemic Sprague-Dawley rat assessed as triglyceride level at 250 mg/kg, po dosed for last 7 days during 30 day high-fat diet feeding schedule (reference value: 74.3+/- 0.48 mg/dl)
Rattus norvegicus [6] = assay: Effect on body weight in Sprague-Dawley rat at 250 mg/kg, po dosed for last 7 days during 30 day high-fat diet feeding schedule measured every 5th day (reference value: 207.67 +/- 1.2 g)
Rattus norvegicus [7] = assay: Hypolipidemic activity in high fat-induced hyperlipidemic Sprague-Dawley rat assessed as VLDL level at 250 mg/kg, po dosed for last 7 days during 30 day high-fat diet feeding schedule (reference value: 23.48+/- 0.78 mg/dl)
Rattus norvegicus [8] = assay: Hypolipidemic activity in high fat-induced hyperlipidemic Sprague-Dawley rat assessed as LDL level at 250 mg/kg, po dosed for last 7 days during 30 day high-fat diet feeding schedule (reference value: 22.42 +/- 0.41 mg/dl)

| Structure (SMILES) | Activity (Rattus norvegicus [1]) | Activity (Rattus norvegicus [2]) | Activity (Rattus norvegicus [3]) | Ratio (Rattus norvegicus [4]) | Activity (Rattus norvegicus [5]) | Activity (Rattus norvegicus [6]) | Activity (Rattus norvegicus [7]) | Activity (Rattus norvegicus [8]) |
| --- | --- | --- | --- | --- | --- | --- | --- | --- |
| Cc1nc2ccccc2c(=O)n1-c1ccc(OCC(=O)O)cc1 | 39.1 mg/dL | 91.8 mg/dL | 78.5 mg/dL | 1.99 | 117.1 mg/dL | 273.85 g | 34.89 mg/dL | 47.66 mg/dL |
| Cc1nc2cc(O)ccc2c(=O)n1-c1ccc(OC(C)(C)C(=O)O)cc1 | 40.8 mg/dL | 83 mg/dL | 77.7 mg/dL | 1.9 | 114.8 mg/dL | 260.1 g | 35.38 mg/dL | 35.81 mg/dL |
| O=C(O)COc1ccc(-n2c(-c3ccccc3)nc3ccccc3c2=O)cc1 | 33.7 mg/dL | 112.8 mg/dL | 110.8 mg/dL | 3.26 | 144.8 mg/dL | 281.2 g | 28.16 mg/dL | 57.22 mg/dL |
| CC1N(c2ccc(OCC(=O)O)cc2)C(=O)c2ccccc2N1c1ccccc1 (configuration not stated) | 41.4 mg/dL | 114.1 mg/dL | 108.9 mg/dL | 2.67 | 158.8 mg/dL | 274.7 g | 12.21 mg/dL | 70.91 mg/dL |
| CC1N(c2ccc(OC(C)(C)C(=O)O)cc2)C(=O)c2ccccc2N1c1ccccc1 (configuration not stated) | 25.5 mg/dL | 115 mg/dL | 106.4 mg/dL | 4.15 | 154.8 mg/dL | 277.3 g | 22.05 mg/dL | 54.78 mg/dL |
| Cc1nc2ccccc2c(=O)n1-c1ccc(OC(C)(C)C(=O)O)cc1 | 40 mg/dL | 89.19 mg/dL | 93 mg/dL | 2.32 | 154.1 mg/dL | 272.17 g | 37.05 mg/dL | 44.66 mg/dL |
| Cc1nc2cc(O)ccc2c(=O)n1-c1ccc(OCC(=O)O)cc1 | 40.5 mg/dL | 85.3 mg/dL | 77 mg/dL | 1.88 | 116.8 mg/dL | 261.7 g | 37.7 mg/dL | 47.05 mg/dL |
| CC(C)(Oc1ccc(-n2c(-c3ccccc3)nc3ccccc3c2=O)cc1)C(=O)O | 31.6 mg/dL | 114.8 mg/dL | 97.5 mg/dL | 3.11 | 158 mg/dL | 284.5 g | 24.3 mg/dL | 64.33 mg/dL |
| CC(C)OC(=O)C(C)(C)Oc1ccc(C(=O)c2ccc(Cl)cc2)cc1 [FENOFIBRATE] | 34.38 mg/dL | 86.41 mg/dL | 85.4 mg/dL | 2.49 | 125.3 mg/dL | 269 g | 37 mg/dL | 54.66 mg/dL |
